Data from PMC10253401, “BS148 Reduces the Aggressiveness of Metastatic Melanoma via Sigma-2 Receptor Targeting” (International Journal of Molecular Sciences, 2023).

Target: T1, sigma-2 receptor (S2R) (Homo sapiens, UniProt Q5BJF2)
T1 construct: gene TMEM97
Test: radioligand displacement ([3H]-ditolylguanidine, […], with […] (+)pentazocine to mask S1R)
Format: binding

T1 sequence (Q5BJF2 whole entry): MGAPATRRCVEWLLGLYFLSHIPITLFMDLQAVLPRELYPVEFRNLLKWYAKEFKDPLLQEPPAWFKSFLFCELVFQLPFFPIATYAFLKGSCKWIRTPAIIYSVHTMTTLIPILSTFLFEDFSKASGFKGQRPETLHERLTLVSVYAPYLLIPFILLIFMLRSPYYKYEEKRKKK

pKi S2R ^a ± SD: 7.00 ± 0.11 pKi
Compound: O=C(CCCCCNc1ccc([N+](=O)[O-])c2nonc12)Oc1ccc(CC2CCN(CC3CSC4(CCCCC4)S3)CC2)cc1 (stereo not shown) [BS148-fluo, 4-((1-((1,4-dithiaspiro[4.5]decane-2-yl)methyl)piperidin-4-yl)methyl)phenyl-6-((7-nitrobenzo[c][1,2,5]oxadiazol-4-yl)amino)hexanoate]
